Measurements: publication PMC7686308, “Overcoming the blood–brain barrier by Annexin A1-binding peptide to target brain tumours” (British Journal of Cancer, 2020)
“Also recorded” adds a separate entry of the source. Peptide text beside a SMILES is read from it. * marks the point of attachment. X1 = CCc1c2c(nc3ccc(OC(=O)C4CCC(CNC(=O)C5CCC(CN6C(=O)CC(*)C6=O)CC5)CC4)cc13)-c1cc3c(c(=O)n1C2)COC(=O)[C@]3(O)CC

Tests used:
[1] = test system: C6 cells; assay: Cytotoxicity on C6 cells (CellTiter Glo); format: cell-based, rat
Description: (§1) Drug concentration (OM) Drug concentration ( nM) […]
(§2) Supplementary Fig 7 . Cytotoxicity of peptide-conjugated SN38, free peptide s and unconjugated SN-38 and irinotecan (CPT-11) on C6 and B16 cells cultured in vitro. Rat glioma C6 and mouse melanoma B16 cells were treated with reagents shown along the top panels at the concentration indicated and cultured for 2 days. Cell viability was determined by a CellTiter Glo (Promega) assay. The IC50 of each reagent was determined using GraphPad Prism program. N.D.: not determined.

[2] = test system: B16 cells; assay: Cytotoxicity on B16 cells (CellTiter Glo); format: cell-based, mouse
Description: as §1, §2

[3] = test system: C6-Luc brain and subcutaneous tumours; assay: C6-Luc dual-tumour model in NOD-SCID mice; format: in vivo, rat tumour cells in NOD-SCID mice
Description: (§3) C6-Luc cells (5 × 10^4 suspended in 2 μl PBS) were injected into C57BL/6 mouse brain striatum using a stereotaxic frame as described previously.[21] Seven days later, mice underwent imaging for luciferase-expressing tumours. To do so, 100 μl luciferin (30 mg/ml PBS) was injected peritoneally. Mice were then anesthetised under isoflurane gas (20 ml/min) supplemented with oxygen (1 ml/min) and placed under a camera equipped with a Xenogen IVIS 200 imager at both the SBP and AIST animal facilities. Photon numbers were measured for 1–10 sec or for 1 min. For the dual-tumour model, C6-Luc cells were similarly injected into the brain of NOD-SCID mice. When a brain tumour became detectable by IVIS imager, C6-Luc cells (2 × 10^5 suspended in 100 μl PBS) were injected subcutaneously into the dorsal flank of the same mice. Photon numbers in brain and subcutaneous tumours were measured using the IVIS imager. The dual-tumour model was also produced using B16-Luc cells in the isogeneic C57BL/6 mouse. B16-Luc cells (5 × 10^4) were injected into brains of 8–10-weeks-old C57BL/6 female mice as described above for C6-Luc cells. When brain tumours became detectable, B16-Luc cells (2 × 10^5 cells) were injected subcutaneously into the dorsal flank of the same mouse. […]
Next, to compare drug dosages required to suppress growth of brain versus subcutaneous tumours in vivo, we undertook experiments with a dual-tumour model, in which a single SCID mouse received C6-Luc cells both in brain and under the skin (Fig. 4a, Supplementary Fig. 8A). Mice were then injected intravenously with IF7C(RR)-SN38 and tumour growth in both locations was assessed in vivo by photon number.
Fig. 4 Effect of IF7C(RR)-SN38 on the dual-tumour model mice. a Dual-tumour model was established with C6-Luc cells in NOD-SCID mice. […] Growth of B16-Luc cells were monitored as in a similar manner as in a, followed by intravenous injection with either IF7C(RR)-SN38 (7.0 μmoles/kg), irinotecan (CPT-11) (50 μmoles/kg) or buffer control daily for 6 days. […] Statistical analysis was assessed by Student’s t-test.

[4] = test system: B16-Luc brain and subcutaneous tumours; assay: B16-Luc dual-tumour model in C57BL/6 mice; format: in vivo, mouse (C57BL/6)
Description: (§4) C6-Luc cells (5 × 10^4 suspended in 2 μl PBS) were injected into C57BL/6 mouse brain striatum using a stereotaxic frame as described previously.[21] Seven days later, mice underwent imaging for luciferase-expressing tumours. To do so, 100 μl luciferin (30 mg/ml PBS) was injected peritoneally. Mice were then anesthetised under isoflurane gas (20 ml/min) supplemented with oxygen (1 ml/min) and placed under a camera equipped with a Xenogen IVIS 200 imager at both the SBP and AIST animal facilities. Photon numbers were measured for 1–10 sec or for 1 min. For the dual-tumour model, C6-Luc cells were similarly injected into the brain of NOD-SCID mice. When a brain tumour became detectable by IVIS imager, C6-Luc cells (2 × 10^5 suspended in 100 μl PBS) were injected subcutaneously into the dorsal flank of the same mice. Photon numbers in brain and subcutaneous tumours were measured using the IVIS imager. The dual-tumour model was also produced using B16-Luc cells in the isogeneic C57BL/6 mouse. B16-Luc cells (5 × 10^4) were injected into brains of 8–10-weeks-old C57BL/6 female mice as described above for C6-Luc cells. When brain tumours became detectable, B16-Luc cells (2 × 10^5 cells) were injected subcutaneously into the dorsal flank of the same mouse.
(§5) IF7C(RR)-SN38 was injected intravenously through the tail vein into tumour-bearing mice once photon number of C6-Luc brain tumour reached 5 × 10^4, which usually occurred after 2 weeks. IF7C(RR)-SN38 (142 μg or 0.0567 μmoles) dissolved in 10 μl dimethylsulfoxide (DMSO) diluted with 100 μl of 50% Cremophore EL in ethanol plus 90 μl PBS was injected intravenously through the tail vein. As the average body weight of a mouse was 18 g, IF7C(RR)-SN38 dose per injection was 3.15 μmoles/kg. For B16-Luc brain tumours, IF7C(RR)-SN38 formulated with Cremophore EL was used at the dosage 7.0 μmoles/kg. Irinotecan (CPT-11), a water soluble SN38 prodrug, was dissolved in PBS and intravenously injected into mice at 50 μmoles /kg. In another set of experiments, brain tumour-bearing mice were treated with IF7C(RR)-SN38 (100 μg or 0.0412 μmoles) dissolved in 10 μl DMSO followed by dilution with 100 μl 10% Solutol HS15 in water. In that case, drug dosage was 2.5 μmoles/kg. Similarly formulated C(RR)-SN38 served as control.
Fig. 4 Effect of IF7C(RR)-SN38 on the dual-tumour model mice. a Dual-tumour model was established with C6-Luc cells in NOD-SCID mice. C6-Luc cells were grown both in brain and under the skin of mice. When tumours in brain and subcutaneous grew by showing photon number more than 2×10^4, IF7C(RR)-SN38 (3.15 μmoles/kg) was injected intravenously daily through tail vein for 9 days. b Effect of IF7C(RR)-SN38 on a dual-tumour model with B16-Luc melanoma cells in C57BL/6 mice. Growth of B16-Luc cells were monitored as in a similar manner as in a, followed by intravenous injection with either IF7C(RR)-SN38 (7.0 μmoles/kg), irinotecan (CPT-11) (50 μmoles/kg) or buffer control daily for 6 days. The drug was diluted in Cremophore EL. In each a and b, error bars denote means ± SEM. Statistical analysis was assessed by Student’s t-test.

[5] = test system: B16-Luc brain tumours; assay: B16-Luc brain tumour in C57BL/6 mice, Solutol HS15 formulation; format: in vivo, mouse (C57BL/6); conditions: 2.5 μmoles/kg i.v. daily for 7 days
Description: as §4, §5
Fig. 5 Therapeutic effect of IF7C(RR)-SN38 formulated with Solutol HS15. a Effect of IF7C(RR)-SN38 on B16-Luc brain tumours in C57BL/6 mice. b Effect of IF7C(RR)-SN38 on C6-Luc brain tumours in nude mice. In these experiments, drug dosage was 2.5 μmoles/kg each for IF7C(RR)-SN38 or C(RR)-SN38 (control), diluted with 10% Solutol HS15 in water and administered daily for 7 days. Note that the B16 brain tumours continued shrinking after ceasing administration of IF7C(RR)-SN38 in C57BL/6 mice. In each a and b, error bars denote means ± SEM. Statistical analysis was assessed by Student’s t-test.

[6] = test system: C6-Luc brain tumours; assay: C6-Luc brain tumour in nude mice, Solutol HS15 formulation; format: in vivo, rat tumour cells in nude mice; conditions: 2.5 μmoles/kg i.v. daily for 7 days, 10% Solutol HS15
Description: as §3, with “cells.” for “cells. When brain tumours became detectable, B16-Luc cells (2 × 10^5 cells) were injected subcutaneously into the dorsal flank of the same mouse.”
Fig. 5 Therapeutic effect of IF7C(RR)-SN38 formulated with Solutol HS15. a Effect of IF7C(RR)-SN38 on B16-Luc brain tumours in C57BL/6 mice. b Effect of IF7C(RR)-SN38 on C6-Luc brain tumours in nude mice. […] Statistical analysis was assessed by Student’s t-test.

[7] = test system: B16-Luc cells; assay: B16-Luc rechallenge of brain tumour-recovered mice; format: in vivo, mouse (C57BL/6); conditions: mice recovered from brain B16-Luc tumours after treatment; 4 days after s.c. injection
Description: (§6) The presence of tumour-infiltrating lymphocytes, especially CD8^+ cytotoxic T cells, is correlated with better prognosis of various cancers.[32],[33] To assess possible involvement of cytotoxic T cells in an antitumour response by host mice, we injected two isogenic cell lines, B16-Luc and LL/2-Luc, into naïve C57BL/6 mice and also into C57BL/6 mice that recovered from brain B16-Luc tumours following IF7C(RR)-SN38 treatment. When these cells were injected subcutaneously in a naïve mouse, both lines formed tumours (Fig. 6a, left).
(§7) Fig. 6 Immunological rejection of the cancer cells from the mouse recovered from brain tumour by IF7C(RR)-SN38 therapy. a Growth of two syngeneic cancer lines in naïve and brain tumour-recovered mice 4 days after subcutaneous injection of LL/2-Luc or B16-Luc cells. b Immunohistochemistry with anti-CD8 antibody of B16-Luc cells at subcutaneous injection sites, 20 h after B16-Luc cell injection. Scale bars: 100 μm. c Quantitative analysis of CD8^+ cells in subcutaneous injection sites.

[8] = test system: LL/2-Luc cells; assay: LL/2-Luc rechallenge of brain tumour-recovered mice; format: in vivo, mouse (C57BL/6); conditions: mice recovered from brain B16-Luc tumours after treatment; 4 days after s.c. injection
Description: as §6, §7

[9] = test system: CD8+ T cells; assay: CD8+ cell infiltration at B16-Luc injection site (immunohistochemistry); format: in vivo, mouse (C57BL/6); conditions: recovered C57BL/6 mice; 20 h after B16-Luc s.c. injection (naïve: 0.2 cells/HPF)
Description: as §7

[10] = LC-MS/MS analysis of SN38 in brain tumours; format: in vivo, mouse; conditions: mice intravenously injected with IF7C(RR)-SN38
[11] = 3.15 μmoles/kg i.v. daily, 9 days, Cremophore EL
[12] = 7.0 μmoles/kg i.v. daily, 6 days, Cremophore EL

Structure (SMILES): CCc1c2c(nc3ccc(OC(=O)C4CCC(CNC(=O)C5CCC(CN6C(=O)CC(SC[C@H](NC(=O)[C@H](CCCNC(=N)N)NC(=O)[C@H](CCC(N)=O)NC(=O)[C@H](Cc7c[nH]c8ccccc78)NC(=O)[C@H](CC(C)C)NC(=O)[C@H](CC(C)C)NC(=O)[C@H](Cc7ccccc7)NC(=O)[C@@H](N)[C@@H](C)CC)C(=O)N[C@@H](CCCNC(=N)N)C(=O)N[C@@H](CCCNC(=N)N)C(=O)O)C6=O)CC5)CC4)cc13)-c1cc3c(c(=O)n1C2)COC(=O)[C@]3(O)CC (stereo partly drawn) [IF7C(RR)-SN38] (H-IFLLWQRC(X1)RR-OH; N-terminus and C-terminus assumed)
- logIC50 ([1]; C6, 2 days, CellTiter Glo, GraphPad Prism): 1.812
- cytotoxic activity compared with free SN38 ([1]; in vitro, C6 cells): comparable to those of free SN38
- logIC50 ([2]; B16, 2 days, CellTiter Glo, GraphPad Prism): 2.171
- cytotoxic activity compared with free SN38 ([2]; in vitro, B16 cells): comparable to those of free SN38
- brain tumour growth (photon number) [3, 11]: significantly suppressed tumour growth relative to buffer controls
- subcutaneous tumour growth (photon number) [3, 11]: significantly suppressed tumour growth relative to buffer controls
- brain versus subcutaneous tumour effect ([3]; 3.15 μmoles/kg, C6-Luc, NOD-SCID): effect of IF7C(RR)-SN38 on brain tumours is comparable to that on subcutaneous tumours
- brain tumour growth (photon number) [4, 12]: significantly antagonised growth of both brain and subcutaneous tumours compared to buffer controls
- subcutaneous tumour growth (photon number) [4, 12]: significantly antagonised growth of both brain and subcutaneous tumours compared to buffer controls
- brain versus subcutaneous tumour effect ([4]; 7.0 μmoles/kg, B16-Luc, C57BL/6): effect of IF7C(RR)-SN38 on brain tumours is comparable to that on subcutaneous tumours
- B16-Luc brain tumour response during the first week ([5]; 10% Solutol HS15): tumours began shrinking during the first week of daily injections
- B16-Luc brain tumour, final outcome ([5]; 10% Solutol HS15): completely disappeared; also recorded: complete disappearance of brain tumours
- survival after cessation of treatment without signs of B16-Luc cell growth ([5]; 10% Solutol HS15): more than 3 months
- therapeutic effect with Solutol HS15 relative to Cremophore EL ([5]; 10% Solutol HS15 in water): significantly improved
- B16-Luc brain tumour response, second week without injection ([5]; then no drug): continued shrinking during the second week without drug injection
- C6-Luc brain tumour growth [6]: suppressed the tumour growth
- complete disappearance of C6-Luc brain tumours [6]: did not promote complete disappearance of brain tumours
- B16-Luc tumour formation after s.c. rechallenge [7]: B16-Luc tumours did not appear
- LL/2-Luc tumour formation after s.c. challenge [8]: LL/2-Luc tumours grew
- CD8+ cell infiltration at injection sites [9]: 92.2 cells/HPF
- SN38 in brain tumours [10]: did not detect SN38 in brain tumours
